What was measured:
(H^+ +K^+)-ATPase = target: T1, (H^+ +K^+)-ATPase (Canis lupus familiaris, UniProt P50996); assay: Inhibition of (H^+ +K^+)-ATPase from Canine Gastric Mucosa; format: biochemical, canine (mongrel dogs); conditions: canine gastric mucosa microsomes; pH 6.0; 30 min preincubation with compound at 37°; K^+-stimulated minus basal activity
T1 construct: (H^+ +K^+)-ATPase obtained from canine gastric mucosa; from tissue; host or cells: glandular gastric mucosa of mongrel dogs (antral and cardiac regions removed), microsomes from the 15%-30% sucrose interface, lyophilized
Protocol: Inhibition of (H^+ +K^+)-ATPase from Canine Gastric Mucosa
Mongrel dogs weighing 15 to 25 kilograms were fasted for twenty-four hours, with water provided ad libitum. The animals were anesthetized with pentobarbital and the stomachs were removed. Subsequent tissue manipulations and subcellular fractionations were performed at 0° to 4° C. After the stomachs were cut open and rinsed with tap water, the antral and cardiac regions were removed and the remaining tissue was rinsed three times in saline. The glandular mucosa was removed mechanically, chopped finely in a medium containing 10 mM Tris hydrochloride (pH 7.4) and 250 mM sucrose, and homogenized. The homogenate was centrifuged at 20,000×g for twenty minutes and the pellet discarded. The supernatant was then centrifuged at 150,000×g for ninety minutes and the supernatant discarded. The pellet was resuspended in the Tris-HCl/sucrose medium by homogenization. Part (2 ml) of the resultant microsomal suspension was layered onto a step gradient consisting of 9 ml of 15% sucrose above 12 ml of 30% sucrose, each sucrose solution being buffered with 10 mM Tris hydrochloride (pH 7.4) containing 0.01% sodium azide. The microsomes retained at the 15%-30% sucrose interface, after centrifugation at 250,000×g for sixty minutes, were used as the source of (H^+ +K^+)-ATPase. Microsomal preparations were lyophilized, a process that assured potassium ion permiability, and stored at -10° until used.
(H^+ K^+)-ATPase activity for each test compound was determined, in duplicate, by measuring the release of inorganic phosphate, which was assayed according to the method of J. ChandraRajan and L. Klein. Anal. Biochem., 72, 407-412 (1976). The (H^+ +K^+)-ATPase assay medium consisted of 20 mM Mes-Tris (pH 6.0), 5 mM magnesium chloride, 25 mM sucrose, and 4 mM Tris-ATP with or without 20 mM potassium chloride in a total volume of 2 ml. Microsomal suspensions (20 to 60 mcl, containing about 25 mcg protein) were added to the assay medium, without Tris-ATP, and then preincubated with a test compound for thirty minutes at 37°. The assay was initiated by adding Tris-ATP and the mixture was incubated another thirty minutes at 37°. A 200-mcl aliquot of the assay mixture was then added to 1.4 ml of a solution consisting of 0.1M sodium acetate (pH 4.0) and 10 % sodium dodecylsulfate, followed by the addition of 200 mcl each of 1% ammonium molybdate and 1% ascorbic acid. At least fifteen minutes later, the optical absorbance at 870 nm (which was proportional to inorganic phosphate concentration up to 100 nmoles per tube, as determined by a standard curve) was obtained. Enzyme activity was linear with incubation time.
(H^+ +K^+)-ATPase activity is represented by the difference between the measured activities in the presence of potassium ion (K^+ -stimulated) and in the absence of potassium ion (basal). […] If the IC50 for a test compound could not be determined for the concentration range tested, percent inhibition of (H^+ +K^+)-ATPase was obtained for the compound at 0.1 mM.

[1] = tested on: gastric acid secretion in gastric fistula beagle dogs; assay: Inhibition of Gastric Acid Secretion in Gastric Fistula Beagle Dogs; format: in vivo; conditions: 3 mg/kg dose; i.d. (intraduodenal); histamine-stimulated secretion, four-hour period

T1 sequence (P50996 2-1034 limits assumed): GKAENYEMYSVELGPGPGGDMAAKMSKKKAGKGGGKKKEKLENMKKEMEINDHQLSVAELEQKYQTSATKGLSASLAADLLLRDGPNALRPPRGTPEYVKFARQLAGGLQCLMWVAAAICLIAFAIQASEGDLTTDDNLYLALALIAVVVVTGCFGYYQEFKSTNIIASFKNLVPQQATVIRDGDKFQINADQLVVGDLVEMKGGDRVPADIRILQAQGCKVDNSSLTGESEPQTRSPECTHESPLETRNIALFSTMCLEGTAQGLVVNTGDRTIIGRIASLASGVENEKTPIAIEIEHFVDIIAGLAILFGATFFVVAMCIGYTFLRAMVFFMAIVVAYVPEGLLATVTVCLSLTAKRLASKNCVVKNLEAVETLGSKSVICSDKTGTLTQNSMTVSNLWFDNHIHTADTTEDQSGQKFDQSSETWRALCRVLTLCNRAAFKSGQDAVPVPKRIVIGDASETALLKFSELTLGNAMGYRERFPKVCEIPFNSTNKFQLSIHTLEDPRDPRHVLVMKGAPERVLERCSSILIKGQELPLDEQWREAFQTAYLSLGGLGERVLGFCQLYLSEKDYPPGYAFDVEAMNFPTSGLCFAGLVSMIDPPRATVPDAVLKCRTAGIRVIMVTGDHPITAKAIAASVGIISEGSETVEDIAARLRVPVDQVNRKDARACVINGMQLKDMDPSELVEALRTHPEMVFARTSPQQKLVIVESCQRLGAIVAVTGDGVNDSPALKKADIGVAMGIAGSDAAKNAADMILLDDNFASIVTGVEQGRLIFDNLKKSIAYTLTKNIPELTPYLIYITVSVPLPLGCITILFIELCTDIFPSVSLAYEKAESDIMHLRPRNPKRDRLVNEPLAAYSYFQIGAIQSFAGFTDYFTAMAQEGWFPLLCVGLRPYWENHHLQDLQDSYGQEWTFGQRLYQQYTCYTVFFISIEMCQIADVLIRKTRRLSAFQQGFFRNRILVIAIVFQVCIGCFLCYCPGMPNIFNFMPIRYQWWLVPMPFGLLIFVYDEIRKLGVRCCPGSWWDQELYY
T1 sequence (P33704 whole entry partner): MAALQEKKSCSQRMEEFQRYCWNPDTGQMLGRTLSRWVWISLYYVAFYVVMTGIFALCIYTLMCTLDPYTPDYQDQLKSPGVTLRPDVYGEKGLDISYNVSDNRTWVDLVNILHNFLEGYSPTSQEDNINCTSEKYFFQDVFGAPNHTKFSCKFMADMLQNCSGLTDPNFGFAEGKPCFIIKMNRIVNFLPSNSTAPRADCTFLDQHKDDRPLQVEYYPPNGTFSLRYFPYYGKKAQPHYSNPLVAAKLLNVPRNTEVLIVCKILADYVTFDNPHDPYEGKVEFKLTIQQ

SMILES	IC50 ((H^+ +K^+)-ATPase) [µM]	Gastric-Fistula Beagle % Inhibition [1] [%]
[O-][S+](Cc1cccc2nccn12)c1nc2ccccc2[nH]1 (centres unmarked) [Example 56, 2-[(imidazo[1,2-a]pyridin-5-ylmethyl)sulfinyl]-1H-benzimidazole]	> 100	
O=[N+]([O-])c1ccc(-c2cnc3c(C[S+]([O-])c4nc5ccccc5[nH]4)cccn23)cc1 (centres unmarked) [Example 33, 2-[[[3-(4-nitrophenyl)imidazo[1,2-a]pyridin-8-yl]methyl]sulfinyl]-1H-benzimidazole 1/4 hydrate]	17.5	
[O-][S+](Cc1cccn2cc(-c3ccccc3)nc12)c1nc2ccccc2[nH]1 (centres unmarked) [Example 28, 2-[[(2-phenylimidazo[1,2-a]pyridin-8-yl)methyl]sulfinyl]-1H-benzimidazole 1/4 hydrate]	> 100	
[O-][S+](Cc1cccn2c(-c3ccc(C(F)(F)F)cc3)cnc12)c1nc2ccccc2[nH]1 (centres unmarked) [Example 45, 2-[[[3-[4-(trifluoromethyl)phenyl]imidazo[1,2-a]pyridin-8-yl]methyl]sulfinyl]-1H-benzimidazole]	7.4	
Cc1ccc(-c2cnc3c(C[S+]([O-])c4nc5ccccc5[nH]4)cccn23)cc1 (centres unmarked) [Example 54, 2-[[[3-(4-methylphenyl)imidazo[1,2-a]pyridin-8-yl]methyl]sulfinyl]-1H-benzimidazole]	3.2	
[O-][S+](Cc1cccn2c(-c3cccc(C(F)(F)F)c3)cnc12)c1nc2cc(Cl)ccc2[nH]1 (centres unmarked) [Example 42, 5-chloro-2-[[[3-[3-(trifluoromethyl)phenyl]imidazo[1,2-a]pyridin-8-yl]methyl]sulfinyl]-1H-benzimidazole]	15.2	
[O-][S+](Cc1cccn2c(-c3ccccc3)cnc12)c1nc2ccccc2[nH]1 (centres unmarked) [Example 30, 2-[[(3-phenylimidazo[1,2-a]pyridin-8-yl)methyl]sulfinyl]-1H-benzimidazole hemihydrate]	9.1	
COC(=O)c1ccc(-c2cnc3c(C[S+]([O-])c4nc5ccccc5[nH]4)cccn23)cc1 (centres unmarked) [Example 49, methyl 4-[8-[(1H-benzimidazol-2-ylsulfinyl)methyl]imidazo[1,2-a]pyridin-3-yl]benzoate hydrate]	7.8	
[O-][S+](Cc1cccn2c(-c3cccc(C(F)(F)F)c3)cnc12)c1nc2ccccc2[nH]1 (centres unmarked) [Example 36, 2-[[[3-[3-(trifluoromethyl)phenyl]imidazo[1,2-a]pyridin-8-yl]methyl]sulfinyl]-1H-benzimidazole]	6.9	
[O-][S+](Cc1cccn2c(-c3ccc(C(F)(F)F)cc3)cnc12)c1nc2cc(Cl)ccc2[nH]1 (centres unmarked) [Example 47, 5-chloro-2-[[[3-[4-(trifluoromethyl)phenyl]imidazo[1,2-a]pyridin-8-yl]methyl]sulfinyl]-1H-benzimidazole]	13	
Cc1nc2c(C[S+]([O-])c3nc4ccccc4[nH]3)cccn2c1C (centres unmarked) [Example 23, 2-[[(2,3-dimethylimidazo[1,2-a]pyridin-8-yl)methyl]sulfinyl]-1H-benzimidazole]	6.2	
[O-][S+](Cc1cccn2c(-c3ccc(Cl)cc3)cnc12)c1nc2ccccc2[nH]1 (centres unmarked) [Example 52, 2-[[[3-(4-chlorophenyl)imidazo[1,2-a]pyridin-8-yl]methyl]sulfinyl]-1H-benzimidazole]	5.5	

Now from value to molecule, other results behind:

IC50 ((H^+ +K^+)-ATPase) [µM]	SMILES	Gastric-Fistula Beagle % Inhibition [1] [%]
5	[O-][S+](Cc1cccn2ccnc12)c1nc2cc(Cl)ccc2[nH]1 (centres unmarked) [Example 19, 5-chloro-2-[(imidazo[1,2-a]pyridin-8-ylmethyl)sulfinyl]-1H-benzimidazole]	
6.2	Cc1cccc2[nH]c([S+]([O-])Cc3cccn4ccnc34)nc12 (centres unmarked) [Example 11, 2-[(imidazo[1,2-a]pyridin-8-ylmethyl)sulfinyl]-4-methyl-1H-benzimidazole]	
9.2	CCOc1ccc2[nH]c([S+]([O-])Cc3cccn4ccnc34)nc2c1 (centres unmarked) [Example 9, 5-ethoxy-2-[(imidazo[1,2-a]pyridin-8-ylmethyl)sulfinyl]-1H-benzimidazole]	
4.8	Cc1cc2nc([S+]([O-])Cc3cccn4ccnc34)[nH]c2cc1C (centres unmarked) [Example 15, 2-[(imidazo[1,2-a]pyridin-8-ylmethyl)sulfinyl]-5,6-dimethyl-1H-benzimidazole hydrate]	
69	COc1cc2nc([S+]([O-])Cc3cccn4ccnc34)[nH]c2cc1OC (centres unmarked) [Example 17, 2-[(imidazo[1,2-a]pyridin-8-ylmethyl)sulfinyl]-5,6-dimethoxy-1H-benzimidazole]	
2.7	[O-][S+](Cc1cccn2ccnc12)c1nc2ccccc2[nH]1 (centres unmarked) [Example 3, 2-[(imidazo[1,2-a]pyridin-8-ylmethyl)sulfinyl]-1H-benzimidazole 1/8 hydrate]	57
3.4	[O-][S+](Cc1cccn2ccnc12)c1nc2cc(C(F)(F)F)ccc2[nH]1 (centres unmarked) [Example 21, 2-[(imidazo[1,2-a]pyridin-8-ylmethyl)sulfinyl]-5-(trifluoromethyl)-1H-benzimidazole]	
3.1	Cc1ccc2[nH]c([S+]([O-])Cc3cccn4ccnc34)nc2c1 (centres unmarked) [Example 13, 2-[(imidazo[1,2-a]pyridin-8-ylmethyl)sulfinyl]-5-methyl-1H-benzimidazole]	
4	Cc1cnc2c(C[S+]([O-])c3nc4ccccc4[nH]3)cccn12 (centres unmarked) [Example 25, 2-[[(3-methylimidazo[1,2-a]pyridin-8-yl)methyl]sulfinyl]-1H-benzimidazole hemihydrate1/2CH2 Cl2]	
8.5	COc1ccc2[nH]c([S+]([O-])Cc3cccn4ccnc34)nc2c1 (centres unmarked) [Example 7, 2-[(imidazo[1,2-a]pyridin-8-ylmethyl)sulfinyl]-5-methoxy-1H-benzimidazole]	
7.2	Cc1ccc2[nH]c([S+]([O-])Cc3cccn4c(-c5cccc(C(F)(F)F)c5)cnc34)nc2c1 (centres unmarked) [Example 39, 5-methyl-2-[[[3-[3-(trifluoromethyl)phenyl]imidazo[1,2-a]pyridin-8-yl]methyl]sulfinyl]-1H-benzimidazole]	
6.7	Cc1cn2cccc(C[S+]([O-])c3nc4ccccc4[nH]3)c2n1 (centres unmarked) [Example 5]	16

From patent US4687775A, “2-[(Imidazo[1,2-a]pyridinylmethyl)sulfinyl]-1H-benzimidazoles” (G. D. Searle & Co., priority 1986, dated 1987)
